For data set [1], the system named is MCF-7 (breast cancer cell line). Description: MTT cytotoxicity assay, MCF-7. It counts as cell-based. The settings on record: Homo sapiens, MCF7; MCF-7, MTT, 72 h. The source says: Colorectal carcinoma cells (HCT-116), chronic myelogenous leukemia (K562), and acute promyelocytic leukemia (HL-60) were generously provided by Dr. Manoel de Moraes (Federal University of Ceará, Fortaleza, Brazil) and cultured in Roswell Park Memorial Institute 1640 (RPMI 1640; Sigma Aldrich, St. Louis, MO, USA) medium supplemented with 10% fetal bovine serum (GIBCO, Grand Island, NY, USA) and 1% penicillin–streptomycin (Sigma Aldrich, St. Louis, MO, USA). […]
MTT (3-(4,5-dimethylthiazol-2-yl)-2,5-diphenyltetrazolium bromide) reduction assay was used to evaluate the cytotoxicity of ACS03 and its precursors (2-amino-5,6,7,8-tetrahydro-4H-cyclohepta[b]thiophene-3-carbonitrile and 6,9-dichloro-2-methoxyacridine) against tumor and non-tumor cell lines and PBMC. […] The optical density was measured using a microplate spectrophotometer reader (Microplate reader BioTek Instruments, Sinergy HT, Winooski, VT, USA) at λ = 570 nm and used to calculate the IC50 (half maximal inhibitory concentration).
(Formazan colour is commonly taken as a measure of viable cells.)

Data set [2] is described as follows: Fish embryo acute toxicity (FET) test. Further details: species or system zebrafish (Danio rerio). To be noted: wild-type, in vivo, zebrafish embryos, 96 h exposure; for EC50 at 96 h: zebrafish. On the procedure: The zebrafish (Danio rerio) embryos were provided by the zebrafish facility established at Department of Molecular Biology, Federal University of Paraíba (João Pessoa, Brazil). To obtain embryos, an egg trap was placed overnight in a tank containing male and female specimens (1:1 ratio) of a wild-type strain one day prior to testing. One hour after the beginning of the light cycle (14 h light/10 h dark), eggs were collected and rinsed with E3 medium (5 mM NaCl, 0.17 mM KCl, 0.33 mM CaCl2, and 0.33 mM MgSO4). Viable fertilized eggs were selected using a stereomicroscope (80× magnification), and embryotoxicity analysis was carried out. All experiments were approved by the Committee on Ethical Use of Animals in Research (CEUA) of Federal University of Paraíba, Brazil, certified by number 5900310718/2018.
The fish embryo acute toxicity (FET) test was conducted with ACS03 according to OECD’s guideline no. 236, with slight modifications. Zebrafish embryos of up to 3 hpf (hours post fertilization) of age were initially exposed to 250–15.62 µM. For each concentration tested, we prepared a 96-well plate containing 20 fertilized eggs (1 embryo per well) exposed to the test sample and 4 embryos exposed only to E3 medium (internal controls). The exposure was performed for 96 h, and the embryos were analyzed every 24 h for the apical endpoints: egg coagulation; lack of somite formation; lack of detachment of the tail-bud from the yolk sac; and lack of heartbeat. In the presence of any of these endpoints, the embryo/larva was considered dead. The number of deaths was used to calculate the LC50 (median lethal concentration). Sublethal effects were also recorded in order to obtain the EC50 (median effect concentration), them being spinal deformation, reduction in larval length, and pericardial edema. The exposures were under static conditions (without renovation of test sample or E3 medium). Observations were performed in a stereomicroscope (80× magnification) and photographed (Zeiss). After 96 h, surviving larvae were euthanized with eugenol and properly discarded.
The results are expressed as the mean ± SEM. Statistical analysis of data was performed using analysis of variance (ANOVA), followed by Tukey’s test (p < 0.05). For zebrafish embryo cytotoxicity, the median lethal concentration (LC50) values and the median effect concentration (EC50) values were calculated by probit regression analysis.

Data set [3] has as its system HCT-116 cells (human colon carcinoma cell line). Description: MTT cytotoxicity assay, HCT-116. Format: cell-based. To be noted: HCT-116, 72 h. The text has this:
Colorectal carcinoma cells (HCT-116), chronic myelogenous leukemia (K562), and acute promyelocytic leukemia (HL-60) were generously provided by Dr. Manoel de Moraes (Federal University of Ceará, Fortaleza, Brazil) and cultured in Roswell Park Memorial Institute 1640 (RPMI 1640; Sigma Aldrich, St. Louis, MO, USA) medium supplemented with 10% fetal bovine serum (GIBCO, Grand Island, NY, USA) and 1% penicillin–streptomycin (Sigma Aldrich, St. Louis, MO, USA). Human keratinocyte cells (HaCaT; provided by Dr. Jaciana Aguiar from Federal University of Pernambuco, Recife, Pernambuco, Brazil), cervical cancer cells (HeLa; purchased from the cell bank of Rio de Janeiro, Rio de Janeiro, Brazil), and breast cancer cells (MCF-7; provided by Dr. João Ernesto de Carvalho from University of Campinas, Campinas, São Paulo, Brazil) were grown and maintained in Dulbecco’s Modified Eagle’s Medium (DMEM; Sigma Aldrich, St. Louis, MO, USA) supplemented with 10% fetal bovine serum (GIBCO, Grand Island, NY, USA) and 1% penicillin–streptomycin (Sigma Aldrich, St. Louis, MO, USA). All cell types were maintained in 5% CO2 at 37 °C with humidity.
MTT (3-(4,5-dimethylthiazol-2-yl)-2,5-diphenyltetrazolium bromide) reduction assay was used to evaluate the cytotoxicity of ACS03 and its precursors (2-amino-5,6,7,8-tetrahydro-4H-cyclohepta[b]thiophene-3-carbonitrile and 6,9-dichloro-2-methoxyacridine) against tumor and non-tumor cell lines and PBMC. For the MTT assay, cell lines (3 × 10^5 cells/mL) and PBMC (1 × 10^6 cells/mL) were seeded on 96-well plates and cultured for 24 h. ACS03 (3.125–200 µM) was added to the cell cultures and incubated for 72 h. After incubation, 110 µL of the supernatant was removed and 10 μL of the MTT reagent (Sigma Aldrich, St. Louis, MO, USA) was added to each well, and the plates were then incubated at 37 °C. Following 3 h incubation, 100 μL of sodium dodecyl sulfate (SDS) was added to dissolve the formazan crystals produced and left overnight to incubate. The amount of formazan is proportional to the number of viable cells present. The optical density was measured using a microplate spectrophotometer reader (Microplate reader BioTek Instruments, Sinergy HT, Winooski, VT, USA) at λ = 570 nm and used to calculate the IC50 (half maximal inhibitory concentration).

For data set [4], the system named is GST (Glutathione S-transferase). Briefly: GST activity in zebrafish larvae. Format: in vivo, zebrafish (Danio rerio). To be noted: 96 h, control 31.8 ± 0.05. On the procedure:
The FET test was repeated for ACS03 under the same conditions described above, but this time the embryos were independently exposed to three concentrations (10, 20, and 40 µM). At the end of the exposure period (96 h), the larvae were quickly frozen in a ratio of 1 larva per 100 µL of 0.1 M sodium phosphate buffer, pH 7.4.
Larval groups from each of the three tested concentrations and a negative control group (exposed to E3 medium only) were macerated using 1:9 (w/v) cold 0.9% NaCl solution. The homogenates were centrifuged at 10,000× g for 10 min at 4 °C, and the resulting supernatants were used for the measurement of soluble protein content and enzyme activity. The activities of acetylcholinesterase (AChE), glutathione S-transferase (GST), and lactate dehydrogenase (LDH) were measured according to Domingues et al. (2010). Tests were done in quadruplicate for each enzyme.

Molecules are shown by their SMILES. Where two headings read alike, the source gives them in different places. Bounds are passed on as bounds.

A word on the IC50: it is the concentration that gives 50% inhibition. A low value points to greater potency in that assay. Broadly, the EC50 is the concentration at which the effect is half-maximal. As for `COc1ccc2nc3cc(Cl)ccc3c(Nc3sc4c(c3C#N)CCCCC4)c2c1` [ACS03, 2-((6-Chloro-2-methoxyacridin-9-yl)amino)-5,6,7,8-tetrahydro-4H-cyclohepta[b]-thiophene-3-carbonitrile], the IC50 in data set [1] is more than 50 µM; in data set [3] it was 23.1 ± 1.03 µM. In data set [2] (read-out: LC50 (median lethal concentration)), the LC50 at 96 h was more than 1000 µM. The EC50 at 96 h in data set [2] (read-out: EC50 pericardial edema) is more than 1000 µM; in data set [2] (read-out: EC50 reduction in larval length), 126 µM; in data set [2] (read-out: EC50 spinal deformation), 172 µM. In addition, the figures for the GST activity in data set [4] (10 µM), in data set [4] (20 µM) and in data set [4] (40 µM) were 57.96 ± 0.23, 75.83 ± 0.13 and 86.14 ± 0.21, respectively.

Values taken from publication PMC6983054, “Toxicity and Antitumor Activity of a Thiophene–Acridine Hybrid” (Molecules, 2019).
